Experimental data: patent publication US20070197608A1, “Piperazines as oxytocin agonists” (Ferring B.V., priority 2003, published 2007)

Molecular target: T1, human OT receptor (Homo sapiens, UniProt P30559)
T1 construct: expressed in transfected cells; host or cells: mammalian cell line, e.g. Chinese hamster ovary (CHO), stably or transiently transfected; co-transfected with a firefly luciferase reporter (e.g. NFAT promoter)
T1 sequence (P30559 1-389): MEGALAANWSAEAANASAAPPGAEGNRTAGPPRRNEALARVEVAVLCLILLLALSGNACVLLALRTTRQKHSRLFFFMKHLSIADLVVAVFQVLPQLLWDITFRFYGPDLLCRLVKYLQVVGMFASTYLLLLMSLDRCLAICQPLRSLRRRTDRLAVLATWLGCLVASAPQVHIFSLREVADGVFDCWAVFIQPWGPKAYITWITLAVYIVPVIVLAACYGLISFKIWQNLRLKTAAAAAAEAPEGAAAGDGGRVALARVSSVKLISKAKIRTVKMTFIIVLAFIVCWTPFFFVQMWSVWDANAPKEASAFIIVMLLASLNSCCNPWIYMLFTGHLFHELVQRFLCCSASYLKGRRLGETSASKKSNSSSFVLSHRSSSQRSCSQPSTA
Test: human OT receptor agonist assay, luciferase reporter (NFAT promoter) in transfected CHO cells
Format: cell-based
Details: for OT (efficacy): maximal efficacy compared to the maximal stimulation observed with OT; for EC50: concentration at which the response is 50% of the maximum, 4-parameter logistic fit, luciferase reporter in cells expressing the human OT receptor
Description: In addition, the cells are transfected with a gene for firefly luciferase under the control of a suitable promoter, e.g. NFAT promoter. Contact of the OT receptor by an agonist leads to stimulation of luciferase synthesis, the extent of which is measured using commercially available reagents. Concentrations at which the response is 50% of the maximum are calculated by fitting of data to 4-parameter logistic curves. Maximal efficacy is calculated compared to the maximal stimulation observed with OT.

Structure (SMILES)	OT (efficacy) [%]	EC50 [nM]
Cc1cc(C(=O)N2Cc3cnn(C)c3Nc3ccccc32)ccc1CNC(=O)N1CCN(Cc2cc(O)cc(O)c2)CC1 [Example 1, 4-(3,5-Dihydroxy-benzyl)-piperazine-1-carboxylic acid 2-methyl-4-(3-methyl-4,10-dihydro-3H-2,3,4,9-tetraaza-benzo[f]azulene-9-carbonyl)-benzylamide]	76	
Cc1cc(C(=O)N2Cc3cnn(C)c3Nc3ccccc32)cc(C)c1CNC(=O)N1CCN(Cc2cc(O)cc(O)c2)CC1 [Example 2, 4-(3,5-Dihydroxy-benzyl)-piperazine-1-carboxylic acid 2,6-dimethyl-4-(3-methyl-4,10-dihydro-3H-2,3,4,9-tetraaza-benzo[f]azulene-9-carbonyl)-benzylamide]	16	24
Cn1ncc2c1Nc1ccccc1N(C(=O)c1ccc(CNC(=O)N3CCN(Cc4cc(O)cc(O)c4)CC3)cc1Cl)C2 [Example 3, 4-(3,5-Dihydroxy-benzyl)-piperazine-1-carboxylic acid 3-chloro-4-(3-methyl-4,10-dihydro-3H-2,3,4,9-tetraaza-benzo[f]azulene-9-carbonyl)-benzylamide]	41	58
Cn1ncc2c1Nc1ccccc1N(C(=O)c1ccc(CNC(=O)N3CCN(Cc4cc(O)cc(O)c4)CC3)c(F)c1)C2 [Example 4, 4-(3,5-Dihydroxy-benzyl)-piperazine-1-carboxylic acid 2-fluoro-4-(3-methyl-4,10-dihydro-3H-2,3,4,9-tetraaza-benzo[f]azulene-9-carbonyl)-benzylamide]	51	74
Cc1cc(C(=O)N2Cc3cnn(C)c3Nc3ccccc32)ccc1CNC(=O)N1CCN(Cc2cccc(C(=O)N(C)C)c2)CC1 [Example 5, 4-(3-Dimethylcarbamoyl-benzyl)-piperazine-1-carboxylic acid 2-methyl-4-(3-methyl-4,10-dihydro-3H-2,3,4,9-tetraaza-benzo[f]azulene-9-carbonyl)-benzylamide]	13	33
Cc1cc(C(=O)N2Cc3cnn(C)c3Nc3ccccc32)ccc1CNC(=O)N1CCN(Cc2cccc(C(=S)N(C)C)c2)CC1 [Example 6, 4-(3-Dimethylthiocarbamoyl-benzyl)-piperazine-1-carboxylic acid 2-methyl-4-(3-methyl-4,10-dihydro-3H-2,3,4,9-tetraaza-benzo[f]azulene-9-carbonyl)-benzylamide]	21	190
